Data published in patent publication US20040096481A1, “Pet food compositions having electrostatically charged ingredient” (priority 2002, published 2004).

Test: Effect of negatively charged amino acid solutions on integrity of cat hair (scan microscope)
Conditions: 0.40 g cat hair in 100 g solution, 100° F., 24 hours, 810× magnification; for degree of hair damage, 0.125% solution: 0.125% amino acid solution diluted from 1.0% solution adjusted to pH 11.3
Procedure: In this example, various negatively charged amino acid solutions were prepared for testing on cat hair to determine how the solution affected the integrity of the hair. First, a 1.0% amino acid solution was prepared by mixing 5.0 g amino acid with 495 g of water. The resulting pH value of each amino acid solution at this point differed, based largely upon the different pK values for each amino acid. A sufficient quantity of sodium hydroxide solution (50.0%) was added to the 1.0% amino acid solution to adjust the pH to 11.3. Weaker amino acid solutions (0.5%, 0.25%, and 0.125%) were subsequently prepared by dilution of the 1.0% solution.
Approximately 0.40 g of cat hair were mixed with 100 g samples of each respective amino acid solution. The cat hair and amino acid solution were kept at 100° F. for 24 hours. Photographs of the cat hairs were taken with a Topcon Technology Company Model ISI-X408 electrical scan microscope at 810× magnification and the degree of hair damage and loss of identifying characteristics was noted.

| SMILES | degree of hair damage, 0.125% solution | other results |
| --- | --- | --- |
| CSCCC(N)C(=O)O (racemic) [DL-methionine] | No damage |  |
| N[C@@H](CS)C(=O)O [Cysteine] | No damage |  |
| N[C@@H](CCC(=O)O)C(=O)O [Glutamic acid] | Cuticle removed |  |
| NCCCC[C@H](N)C(=O)O [Lysine] | No damage |  |
| C[C@H](N)C(=O)O [Alanine] | Cuticle removed |  |
| O=C(O)[C@@H]1CCCN1 [Proline] | Cuticle removed |  |
| N[C@@H](CC(=O)O)C(=O)O [Aspartic acid] | Cuticle removed |  |
| NCC(=O)O [Glycine] | Cuticle removed | degree of hair damage, 0.125% solution (listed as glycine): portions of the cuticle layer have been removed thereby exposing the inner cortex layer; degree of hair damage, 0.25% solution (0.25% amino acid solution diluted from 1.0% solution adjusted to pH 11.3): cuticle 14 has separated thereby forming a channel and exposing the hair cortex; degree of hair damage, 0.5% solution (0.5% amino acid solution diluted from 1.0% solution adjusted to pH 11.3): Portions of the hair cortex 18 have been completely dissolved; degree of hair damage, 1.0% solution (1.0% amino acid solution adjusted to pH 11.3): cuticle has been removed thereby exposing the hair cortex |
